Assays:
EPHA7 = target: T1, EPHA7 (Homo sapiens, UniProt Q15375); assay: Millipore kinase panel; format: biochemical; conditions: read-out: % Control
T1 construct: purchased Millipore KinaseProfiler (kinases); Cerep (receptors and ion channels)

LIMK1 = target: T2, LIMK1 (Homo sapiens, UniProt P53667); assay: Millipore kinase panel; format: biochemical; conditions: read-out: % Control
T2 construct: purchased Millipore KinaseProfiler (kinases); Cerep (receptors and ion channels)

AURKB = target: T3, AURKB (Homo sapiens, UniProt Q96GD4); assay: Millipore kinase panel; format: biochemical; conditions: read-out: % Control
T3 construct: purchased Millipore KinaseProfiler (kinases); Cerep (receptors and ion channels)

MEK1 = target: T4, MEK1 (Homo sapiens, UniProt Q02750); assay: Millipore kinase panel; format: biochemical; conditions: read-out: % Control
T4 construct: purchased Millipore KinaseProfiler (kinases); Cerep (receptors and ion channels)

EPHB2 = target: T5, EPHB2 (Homo sapiens, UniProt P29323); assay: Millipore kinase panel; format: biochemical; conditions: read-out: % Control
T5 construct: purchased Millipore KinaseProfiler (kinases); Cerep (receptors and ion channels)

CK2 = target: T6, CK2 (Homo sapiens, UniProt P68400); assay: Millipore kinase panel; format: biochemical; conditions: read-out: % Control
T6 construct: purchased Millipore KinaseProfiler (kinases); Cerep (receptors and ion channels)

PDGFRALPHA = target: T7, PDGFRALPHA (Homo sapiens, UniProt P16234); assay: Millipore kinase panel; format: biochemical; conditions: read-out: % Control
T7 construct: purchased Millipore KinaseProfiler (kinases); Cerep (receptors and ion channels)

STK33 = target: T8, STK33 (Homo sapiens, UniProt Q9BYT3); assay: Millipore kinase panel; format: biochemical; conditions: read-out: % Control
T8 construct: purchased Millipore KinaseProfiler (kinases); Cerep (receptors and ion channels)

IRR = target: T9, IRR (Homo sapiens, UniProt P14616); assay: Millipore kinase panel; format: biochemical; conditions: read-out: % Control
T9 construct: purchased Millipore KinaseProfiler (kinases); Cerep (receptors and ion channels)

PRAK = target: T10, PRAK (Homo sapiens, UniProt Q8IW41); assay: Millipore kinase panel; format: biochemical; conditions: read-out: % Control
T10 construct: purchased Millipore KinaseProfiler (kinases); Cerep (receptors and ion channels)

KV channel = assay: CEREP binding panel; conditions: 10 μM, antagonist radioligand
JNK3 = target: T11, JNK3 (Homo sapiens, UniProt P53779); assay: Millipore kinase panel; format: biochemical; conditions: read-out: % Control
T11 construct: purchased Millipore KinaseProfiler (kinases); Cerep (receptors and ion channels)

PTK5 = target: T12, PTK5 (Homo sapiens, UniProt P42685); assay: Millipore kinase panel; format: biochemical; conditions: read-out: % Control
T12 construct: purchased Millipore KinaseProfiler (kinases); Cerep (receptors and ion channels)

NEK6 = target: T13, NEK6 (Homo sapiens, UniProt Q9HC98); assay: Millipore kinase panel; format: biochemical; conditions: read-out: % Control
T13 construct: purchased Millipore KinaseProfiler (kinases); Cerep (receptors and ion channels)

D2S (h) = target: T14, D2S (h) (Homo sapiens, UniProt P14416); assay: CEREP binding panel; conditions: antagonist radioligand, read-out: % Inhibition of Control Specific Binding
T14 construct: purchased Millipore KinaseProfiler (kinases); Cerep (receptors and ion channels)

ALK4 = target: T15, ALK4 (Homo sapiens, UniProt P36896); assay: Millipore kinase panel; format: biochemical; conditions: read-out: % Control
T15 construct: purchased Millipore KinaseProfiler (kinases); Cerep (receptors and ion channels)

MLK1 = target: T16, MLK1 (Homo sapiens, UniProt P80192); assay: Millipore kinase panel; format: biochemical; conditions: read-out: % Control
T16 construct: purchased Millipore KinaseProfiler (kinases); Cerep (receptors and ion channels)

JNK2ALPHA2 = target: T17, JNK2ALPHA2 (Homo sapiens, UniProt P45984); assay: Millipore kinase panel; format: biochemical; conditions: read-out: % Control
T17 construct: purchased Millipore KinaseProfiler (kinases); Cerep (receptors and ion channels)

5-HT1A (h) = target: T18, 5-HT1A (h) (Homo sapiens, UniProt P08908); assay: CEREP binding panel; conditions: agonist radioligand, read-out: % Inhibition of Control Specific Binding
T18 construct: purchased Millipore KinaseProfiler (kinases); Cerep (receptors and ion channels)

BRSK1 = target: T19, BRSK1 (Homo sapiens, UniProt Q8TDC3); assay: Millipore kinase panel; format: biochemical; conditions: read-out: % Control
T19 construct: purchased Millipore KinaseProfiler (kinases); Cerep (receptors and ion channels)

NTS1 (NT1) (h) = target: T20, NTS1 (NT1) (h) (Homo sapiens, UniProt P30989); assay: CEREP binding panel; conditions: agonist radioligand, read-out: % Inhibition of Control Specific Binding
T20 construct: purchased Millipore KinaseProfiler (kinases); Cerep (receptors and ion channels)

YES = target: T21, YES (Homo sapiens, UniProt P07947); assay: Millipore kinase panel; format: biochemical; conditions: read-out: % Control
T21 construct: purchased Millipore KinaseProfiler (kinases); Cerep (receptors and ion channels)

CDK7/CYCLINH/MAT1 = target: T22, CDK7/CYCLINH/MAT1 (Homo sapiens, UniProt P50613); assay: Millipore kinase panel; format: biochemical; conditions: read-out: % Control
T22 construct: purchased Millipore KinaseProfiler (kinases); Cerep (receptors and ion channels)

JAK2 = target: T23, JAK2 (Homo sapiens, UniProt O60674); assay: Millipore kinase panel; format: biochemical; conditions: read-out: % Control
T23 construct: purchased Millipore KinaseProfiler (kinases); Cerep (receptors and ion channels)

RIPK2 = target: T24, RIPK2 (Homo sapiens, UniProt O43353); assay: Millipore kinase panel; format: biochemical; conditions: read-out: % Control
T24 construct: purchased Millipore KinaseProfiler (kinases); Cerep (receptors and ion channels)

EPHA1 = target: T25, EPHA1 (Homo sapiens, UniProt P21709); assay: Millipore kinase panel; format: biochemical; conditions: read-out: % Control
T25 construct: purchased Millipore KinaseProfiler (kinases); Cerep (receptors and ion channels)

BMX = target: T26, BMX (Homo sapiens, UniProt P51813); assay: Millipore kinase panel; format: biochemical; conditions: read-out: % Control
T26 construct: purchased Millipore KinaseProfiler (kinases); Cerep (receptors and ion channels)

CKIT = target: T27, CKIT (Homo sapiens, UniProt P10721); assay: Millipore kinase panel; format: biochemical; conditions: read-out: % Control
T27 construct: purchased Millipore KinaseProfiler (kinases); Cerep (receptors and ion channels)

DAPK1 = target: T28, DAPK1 (Homo sapiens, UniProt P53355); assay: Millipore kinase panel; format: biochemical; conditions: read-out: % Control
T28 construct: purchased Millipore KinaseProfiler (kinases); Cerep (receptors and ion channels)

DYRK2 = target: T29, DYRK2 (Homo sapiens, UniProt Q92630); assay: Millipore kinase panel; format: biochemical; conditions: read-out: % Control
T29 construct: purchased Millipore KinaseProfiler (kinases); Cerep (receptors and ion channels)

SRPK1 = target: T30, SRPK1 (Homo sapiens, UniProt Q96SB4); assay: Millipore kinase panel; format: biochemical; conditions: read-out: % Control
T30 construct: purchased Millipore KinaseProfiler (kinases); Cerep (receptors and ion channels)

M1 (h) = target: T31, M1 (h) (Homo sapiens, UniProt P11229); assay: CEREP binding panel; conditions: antagonist radioligand, read-out: % Inhibition of Control Specific Binding
T31 construct: purchased Millipore KinaseProfiler (kinases); Cerep (receptors and ion channels)

FAK = target: T32, FAK (Homo sapiens, UniProt Q05397); assay: Millipore kinase panel; format: biochemical; conditions: read-out: % Control
T32 construct: purchased Millipore KinaseProfiler (kinases); Cerep (receptors and ion channels)

MTOR = target: T33, MTOR (Homo sapiens, UniProt P42345); assay: Millipore kinase panel; format: biochemical; conditions: read-out: % Control
T33 construct: purchased Millipore KinaseProfiler (kinases); Cerep (receptors and ion channels)

[1] = Caco-2 Papp determination; format: in vitro ADME, human; conditions: human, Caco-2; 1 μM, pH 7.4
PI3 KINASE (P110A/P85A) = assay: Millipore kinase panel; format: biochemical; conditions: 1 μM, ATP at Km
CSK = target: T34, CSK (Homo sapiens, UniProt P41240); assay: Millipore kinase panel; format: biochemical; conditions: read-out: % Control
T34 construct: purchased Millipore KinaseProfiler (kinases); Cerep (receptors and ion channels)

FES = target: T35, FES (Homo sapiens, UniProt P07332); assay: Millipore kinase panel; format: biochemical; conditions: read-out: % Control
T35 construct: purchased Millipore KinaseProfiler (kinases); Cerep (receptors and ion channels)

TSSK1 = target: T36, TSSK1 (Homo sapiens, UniProt Q9BXA7); assay: Millipore kinase panel; format: biochemical; conditions: read-out: % Control
T36 construct: purchased Millipore KinaseProfiler (kinases); Cerep (receptors and ion channels)

MAPKAP-K2 = target: T37, MAPKAP-K2 (Homo sapiens, UniProt P49137); assay: Millipore kinase panel; format: biochemical; conditions: read-out: % Control
T37 construct: purchased Millipore KinaseProfiler (kinases); Cerep (receptors and ion channels)

FGR = target: T38, FGR (Homo sapiens, UniProt P09769); assay: Millipore kinase panel; format: biochemical; conditions: read-out: % Control
T38 construct: purchased Millipore KinaseProfiler (kinases); Cerep (receptors and ion channels)

SGK = target: T39, SGK (Homo sapiens, UniProt O00141); assay: Millipore kinase panel; format: biochemical; conditions: read-out: % Control
T39 construct: purchased Millipore KinaseProfiler (kinases); Cerep (receptors and ion channels)

Y1 (h) = target: T40, Y1 (h) (Homo sapiens, UniProt P25929); assay: CEREP binding panel; conditions: agonist radioligand, read-out: % Inhibition of Control Specific Binding
T40 construct: purchased Millipore KinaseProfiler (kinases); Cerep (receptors and ion channels)

CCR1 (h) = target: T41, CCR1 (h) (Homo sapiens, UniProt P32246); assay: CEREP binding panel; conditions: agonist radioligand, read-out: % Inhibition of Control Specific Binding
T41 construct: purchased Millipore KinaseProfiler (kinases); Cerep (receptors and ion channels)

T29 sequence (Q92630 whole entry): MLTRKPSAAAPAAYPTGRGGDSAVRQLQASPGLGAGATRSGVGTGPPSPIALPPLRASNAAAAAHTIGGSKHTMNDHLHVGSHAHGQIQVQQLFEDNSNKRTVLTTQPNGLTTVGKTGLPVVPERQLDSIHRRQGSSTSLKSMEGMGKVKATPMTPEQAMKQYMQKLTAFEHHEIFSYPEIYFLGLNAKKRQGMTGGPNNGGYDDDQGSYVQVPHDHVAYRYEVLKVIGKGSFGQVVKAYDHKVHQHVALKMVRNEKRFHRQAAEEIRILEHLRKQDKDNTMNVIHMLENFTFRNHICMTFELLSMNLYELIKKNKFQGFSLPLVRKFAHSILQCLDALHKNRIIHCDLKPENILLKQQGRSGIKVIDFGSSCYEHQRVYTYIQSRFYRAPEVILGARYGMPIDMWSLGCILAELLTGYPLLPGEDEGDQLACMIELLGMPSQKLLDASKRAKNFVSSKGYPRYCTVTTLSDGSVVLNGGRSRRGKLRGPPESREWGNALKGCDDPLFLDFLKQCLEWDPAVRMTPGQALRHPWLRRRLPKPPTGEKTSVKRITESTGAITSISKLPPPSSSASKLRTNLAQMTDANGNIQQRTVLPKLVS
T17 sequence (P45984 whole entry): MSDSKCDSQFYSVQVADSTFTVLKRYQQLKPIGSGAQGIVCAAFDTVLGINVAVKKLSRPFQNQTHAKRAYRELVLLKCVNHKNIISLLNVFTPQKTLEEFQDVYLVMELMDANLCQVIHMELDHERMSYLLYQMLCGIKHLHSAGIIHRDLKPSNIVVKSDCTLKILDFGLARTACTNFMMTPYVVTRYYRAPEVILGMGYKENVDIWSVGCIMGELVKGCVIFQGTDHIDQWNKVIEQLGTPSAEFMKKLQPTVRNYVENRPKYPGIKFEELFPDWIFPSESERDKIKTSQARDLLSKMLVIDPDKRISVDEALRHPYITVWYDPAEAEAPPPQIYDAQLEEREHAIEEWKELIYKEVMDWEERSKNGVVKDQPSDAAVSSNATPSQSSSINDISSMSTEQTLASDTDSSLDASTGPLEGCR
T37 sequence (P49137 whole entry): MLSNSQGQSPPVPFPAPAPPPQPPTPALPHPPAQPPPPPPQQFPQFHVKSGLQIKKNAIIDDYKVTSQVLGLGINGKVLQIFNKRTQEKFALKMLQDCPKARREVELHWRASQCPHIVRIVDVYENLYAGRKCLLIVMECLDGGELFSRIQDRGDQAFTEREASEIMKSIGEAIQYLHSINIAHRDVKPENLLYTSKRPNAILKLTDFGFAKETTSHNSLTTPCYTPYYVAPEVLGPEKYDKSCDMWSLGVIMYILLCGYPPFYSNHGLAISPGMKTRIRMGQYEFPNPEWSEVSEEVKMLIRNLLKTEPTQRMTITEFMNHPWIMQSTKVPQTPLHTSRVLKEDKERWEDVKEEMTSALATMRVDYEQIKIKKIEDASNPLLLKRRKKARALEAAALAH
T32 sequence (Q05397 whole entry): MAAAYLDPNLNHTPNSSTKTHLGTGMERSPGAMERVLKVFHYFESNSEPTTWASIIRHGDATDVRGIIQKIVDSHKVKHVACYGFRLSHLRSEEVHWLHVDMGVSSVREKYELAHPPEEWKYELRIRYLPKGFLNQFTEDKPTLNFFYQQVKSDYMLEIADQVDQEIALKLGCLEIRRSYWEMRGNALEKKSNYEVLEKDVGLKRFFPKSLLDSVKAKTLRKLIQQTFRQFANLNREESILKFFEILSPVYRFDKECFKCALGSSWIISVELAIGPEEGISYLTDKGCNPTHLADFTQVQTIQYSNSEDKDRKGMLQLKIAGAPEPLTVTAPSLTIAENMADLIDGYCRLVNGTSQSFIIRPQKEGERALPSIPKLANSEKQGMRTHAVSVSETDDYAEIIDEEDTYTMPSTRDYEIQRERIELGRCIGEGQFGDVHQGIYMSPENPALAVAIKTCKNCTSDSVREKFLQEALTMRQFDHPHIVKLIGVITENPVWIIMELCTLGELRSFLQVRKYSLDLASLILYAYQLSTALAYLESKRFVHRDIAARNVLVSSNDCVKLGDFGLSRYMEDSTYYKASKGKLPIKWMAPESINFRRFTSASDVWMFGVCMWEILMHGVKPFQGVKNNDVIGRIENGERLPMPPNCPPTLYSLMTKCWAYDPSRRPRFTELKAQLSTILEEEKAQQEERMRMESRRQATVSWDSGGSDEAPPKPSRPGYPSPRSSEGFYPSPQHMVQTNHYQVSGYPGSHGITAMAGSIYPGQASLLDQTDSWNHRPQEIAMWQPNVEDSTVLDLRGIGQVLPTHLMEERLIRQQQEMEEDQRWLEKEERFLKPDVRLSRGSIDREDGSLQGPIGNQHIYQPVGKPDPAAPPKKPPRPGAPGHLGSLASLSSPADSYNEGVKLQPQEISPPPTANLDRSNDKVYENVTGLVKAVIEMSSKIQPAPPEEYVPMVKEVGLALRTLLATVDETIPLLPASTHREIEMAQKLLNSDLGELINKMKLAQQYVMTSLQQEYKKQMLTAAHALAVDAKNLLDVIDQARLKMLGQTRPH
T36 sequence (Q9BXA7 whole entry): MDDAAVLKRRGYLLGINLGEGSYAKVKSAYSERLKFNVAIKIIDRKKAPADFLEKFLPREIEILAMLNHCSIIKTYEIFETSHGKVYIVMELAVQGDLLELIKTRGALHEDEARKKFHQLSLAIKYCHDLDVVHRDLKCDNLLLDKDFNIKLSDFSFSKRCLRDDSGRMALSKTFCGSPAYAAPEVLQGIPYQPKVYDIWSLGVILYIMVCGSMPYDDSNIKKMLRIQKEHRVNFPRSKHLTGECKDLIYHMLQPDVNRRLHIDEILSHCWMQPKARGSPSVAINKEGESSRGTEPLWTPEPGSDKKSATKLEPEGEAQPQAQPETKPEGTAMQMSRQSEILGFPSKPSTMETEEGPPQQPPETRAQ
T31 sequence (P11229 whole entry): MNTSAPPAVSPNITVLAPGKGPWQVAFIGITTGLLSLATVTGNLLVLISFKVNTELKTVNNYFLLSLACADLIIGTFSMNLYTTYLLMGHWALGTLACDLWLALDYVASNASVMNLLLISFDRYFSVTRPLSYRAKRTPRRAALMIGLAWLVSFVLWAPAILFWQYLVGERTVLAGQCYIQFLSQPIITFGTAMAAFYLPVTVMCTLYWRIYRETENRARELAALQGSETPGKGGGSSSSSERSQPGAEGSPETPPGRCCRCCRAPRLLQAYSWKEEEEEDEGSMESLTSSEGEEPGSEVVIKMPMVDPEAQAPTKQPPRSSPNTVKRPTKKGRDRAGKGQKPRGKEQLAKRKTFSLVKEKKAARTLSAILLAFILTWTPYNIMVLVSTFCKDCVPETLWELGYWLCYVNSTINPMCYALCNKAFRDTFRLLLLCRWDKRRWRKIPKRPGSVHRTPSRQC
T16 sequence (P80192 whole entry): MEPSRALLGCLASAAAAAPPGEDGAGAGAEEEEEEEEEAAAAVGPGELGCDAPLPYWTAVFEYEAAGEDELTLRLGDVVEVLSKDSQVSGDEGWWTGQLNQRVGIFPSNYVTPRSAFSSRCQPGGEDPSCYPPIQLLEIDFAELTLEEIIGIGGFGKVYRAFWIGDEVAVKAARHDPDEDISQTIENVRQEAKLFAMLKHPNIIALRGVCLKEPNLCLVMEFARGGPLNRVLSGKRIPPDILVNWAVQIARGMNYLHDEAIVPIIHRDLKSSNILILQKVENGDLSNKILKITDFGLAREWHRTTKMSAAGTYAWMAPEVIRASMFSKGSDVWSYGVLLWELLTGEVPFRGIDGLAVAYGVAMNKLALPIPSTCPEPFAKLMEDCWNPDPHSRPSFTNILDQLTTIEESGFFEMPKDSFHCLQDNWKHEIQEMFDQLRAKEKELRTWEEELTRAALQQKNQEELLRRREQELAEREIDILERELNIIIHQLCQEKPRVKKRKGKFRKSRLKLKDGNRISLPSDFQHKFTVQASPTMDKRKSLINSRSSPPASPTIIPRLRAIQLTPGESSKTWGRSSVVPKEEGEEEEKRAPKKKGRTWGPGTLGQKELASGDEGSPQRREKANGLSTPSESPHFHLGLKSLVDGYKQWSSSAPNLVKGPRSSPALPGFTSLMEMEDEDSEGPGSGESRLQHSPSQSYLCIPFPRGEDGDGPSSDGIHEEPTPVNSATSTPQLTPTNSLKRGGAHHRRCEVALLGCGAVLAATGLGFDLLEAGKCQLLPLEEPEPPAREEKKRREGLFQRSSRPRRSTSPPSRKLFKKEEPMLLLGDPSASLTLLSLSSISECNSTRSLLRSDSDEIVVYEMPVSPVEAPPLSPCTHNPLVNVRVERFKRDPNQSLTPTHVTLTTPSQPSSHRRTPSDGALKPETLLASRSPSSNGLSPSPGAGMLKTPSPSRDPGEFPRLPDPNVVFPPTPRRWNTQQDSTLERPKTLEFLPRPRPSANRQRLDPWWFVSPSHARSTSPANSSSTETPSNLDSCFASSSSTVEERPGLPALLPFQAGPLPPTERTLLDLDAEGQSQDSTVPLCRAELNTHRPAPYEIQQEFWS
T38 sequence (P09769 whole entry): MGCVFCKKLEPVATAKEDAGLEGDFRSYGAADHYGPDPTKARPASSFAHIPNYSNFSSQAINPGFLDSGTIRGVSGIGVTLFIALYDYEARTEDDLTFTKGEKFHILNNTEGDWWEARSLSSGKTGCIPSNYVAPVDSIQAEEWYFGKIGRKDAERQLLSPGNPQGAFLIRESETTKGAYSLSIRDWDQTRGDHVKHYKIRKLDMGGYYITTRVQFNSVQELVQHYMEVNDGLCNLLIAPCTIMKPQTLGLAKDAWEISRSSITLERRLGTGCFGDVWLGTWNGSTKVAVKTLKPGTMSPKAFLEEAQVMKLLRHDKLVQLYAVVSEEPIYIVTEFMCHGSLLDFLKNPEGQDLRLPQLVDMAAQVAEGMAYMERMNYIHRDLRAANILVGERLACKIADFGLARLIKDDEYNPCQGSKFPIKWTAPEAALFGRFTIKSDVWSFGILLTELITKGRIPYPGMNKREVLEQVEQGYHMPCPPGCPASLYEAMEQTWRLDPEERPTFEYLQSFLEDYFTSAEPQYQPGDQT

## Cn1cc(-c2ccc(-c3cncc(Cl)c3N3CCC4(CCNC4=O)CC3)cc2)cn1 [Compound 74, 8-(3-Chloro-5-(4-(1-methyl-1H-pyrazol-4-yl)phenyl)pyridin-4-yl)-2,8-diazaspiro[4.5]decan-1-one]
EPHA7
  remaining activity at 1 µM: 6%
LIMK1
  remaining activity at 1 µM: 0%
AURKB
  remaining activity at 1 µM: -8%
MEK1
  remaining activity at 1 µM: 10%
EPHB2
  remaining activity at 1 µM: 7%
CK2
  remaining activity at 1 µM: -7%
PDGFRALPHA
  remaining activity at 1 µM: -5%
STK33
  remaining activity at 1 µM: 9%
IRR
  remaining activity at 1 µM: 3%
PRAK
  remaining activity at 1 µM: 13%
KV channel
  % Inhibition of Control Specific Binding: -13%
JNK3
  remaining activity at 1 µM: -7%
PTK5
  remaining activity at 1 µM: -18%
NEK6
  remaining activity at 1 µM: -10%
D2S (h)
  inhibition at 10 µM: 5%
ALK4
  remaining activity at 1 µM: -12%
MLK1
  remaining activity at 1 µM: -5%
JNK2ALPHA2
  remaining activity at 1 µM: 5%
5-HT1A (h)
  inhibition at 10 µM: 19%
BRSK1
  remaining activity at 1 µM: -25%
NTS1 (NT1) (h)
  inhibition at 10 µM: -8%
YES
  remaining activity at 1 µM: 7%
CDK7/CYCLINH/MAT1
  remaining activity at 1 µM: 4%
JAK2
  remaining activity at 1 µM: 11%
RIPK2
  remaining activity at 1 µM: -6%
EPHA1
  remaining activity at 1 µM: -2%
BMX
  remaining activity at 1 µM: -2%
CKIT
  remaining activity at 1 µM: 13%
DAPK1
  remaining activity at 1 µM: 0%
DYRK2
  remaining activity at 1 µM: -9%
SRPK1
  remaining activity at 1 µM: -4%
M1 (h)
  inhibition at 10 µM: 21%
FAK
  remaining activity at 1 µM: -5%
MTOR
  remaining activity at 1 µM: 7%
[1]
  Papp at 2 h, 1 μM: 24 ×10⁻⁶ cm/s
PI3 KINASE (P110A/P85A)
  % Control: -1%
CSK
  remaining activity at 1 µM: 0%
FES
  remaining activity at 1 µM: -14%
TSSK1
  remaining activity at 1 µM: 2%
MAPKAP-K2
  remaining activity at 1 µM: 0%
FGR
  remaining activity at 1 µM: 0%
SGK
  remaining activity at 1 µM: -4%
Y1 (h)
  inhibition at 10 µM: -7%
CCR1 (h)
  inhibition at 10 µM: -4%

Reference: publication PMC4767141, “Discovery of Potent, Orally Bioavailable, Small-Molecule Inhibitors of WNT Signaling from a Cell-Based Pathway Screen” (Journal of Medicinal Chemistry, 2015)
